Test results from ChEMBL document CHEMBL5537185, “Discovery of the First-in-Class RORγ Covalent Inhibitors for Treatment of Castration-Resistant Prostate Cancer” (J Med Chem, 2024).

Legend:
[1] = tested on: LNCaP C4-2B; experiment: Antiproliferative activity against human LNCaP C4-2B cells incubated for 4 days by CCK8 assay; conditions: 96 h
[2] = tested on: LNCaP; experiment: Antiproliferative activity against human LNCaP cells incubated for 4 days by CCK8 assay; conditions: 96 h
[3] = Metabolic stability in mouse liver microsomes assessed as half life at 0.1 uM preincubated for 10 mins followed by NADPH addition and measured upto 60 mins by LC-MS/MS analysis; assay type: ADME, Microsome; conditions: time < 70 min
[4] = tested on: CWR22R; experiment: Antiproliferative activity against human 22Rv1 cells incubated for 4 days by CCK8 assay; conditions: 22Rv1, 96 h
[5] = molecular target: T1, Nuclear receptor ROR-gamma (Homo sapiens, UniProt P51449); experiment: Inhibition of Gal4-fused RORgamma LBD (unknown origin) expressed in HEK293T cells incubated for 48 hrs by luciferase based assay; assay type: cell-based
T1 sequence (P51449 whole entry): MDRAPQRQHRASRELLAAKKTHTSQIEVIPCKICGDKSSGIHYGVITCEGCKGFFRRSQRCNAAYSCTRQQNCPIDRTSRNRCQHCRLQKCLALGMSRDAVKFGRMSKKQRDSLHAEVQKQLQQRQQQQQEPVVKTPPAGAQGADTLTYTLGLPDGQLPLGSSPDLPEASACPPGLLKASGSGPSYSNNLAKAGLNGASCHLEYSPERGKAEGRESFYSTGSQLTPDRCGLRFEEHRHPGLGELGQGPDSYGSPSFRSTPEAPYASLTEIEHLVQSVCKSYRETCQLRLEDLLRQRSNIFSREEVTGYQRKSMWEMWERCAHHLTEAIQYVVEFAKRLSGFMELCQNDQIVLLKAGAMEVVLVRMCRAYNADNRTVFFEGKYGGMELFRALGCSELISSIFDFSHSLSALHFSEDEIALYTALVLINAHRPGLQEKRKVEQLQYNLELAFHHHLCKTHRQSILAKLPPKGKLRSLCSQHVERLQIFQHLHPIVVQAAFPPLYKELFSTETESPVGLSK

IC50 [5] | SMILES | also measured
50 nM | C=CC(=O)Nc1ccccc1-c1c(Cl)cc(NC(=O)Cc2ccc(S(=O)(=O)CC)cc2)cc1Cl | IC50 [1]: 290 nM; IC50 [2]: 700 nM; half-life at 0.1 µM [3]: 2.07 min; IC50 [4]: 920 nM
2320 nM | C=CC(=O)Nc1ccccc1-c1ccc(NC(=O)Cc2ccc(C#N)cc2)cc1C | –
– | C=CC(=O)Nc1ccccc1-c1ccc(NC(=O)Cc2ccc(S(=O)(=O)CC)cc2)cc1C | IC50 [1]: 990 nM; IC50 [2]: 920 nM; half-life at 0.1 µM [3]: 10 min; IC50 [4]: 2250 nM
5440 nM | C=CC(=O)Nc1ccccc1-c1ccc(NC(=O)c2ccc(S(C)(=O)=O)cn2)cc1C | –
2000 nM | CCS(=O)(=O)c1ccc(CC(=O)Nc2ccc(-c3ccccc3NC(=O)CCl)c(C)c2)cc1 | –
6610 nM | C=CC(=O)Nc1ccccc1-c1ccc(NS(=O)(=O)Cc2ccc([N+](=O)[O-])cc2)cc1C | –
1230 nM | C=CC(=O)Nc1ccccc1-c1ccc(NC(=O)Cc2ccc(S(C)(=O)=O)cc2)cc1C | –
1120 nM | C=C(C)C(=O)Nc1ccccc1-c1ccc(NC(=O)Cc2ccc(S(=O)(=O)CC)cc2)cc1C | –
2980 nM | CCC(=O)Nc1ccccc1-c1ccc(NC(=O)Cc2ccc(S(=O)(=O)CC)cc2)cc1C | –
4640 nM | C=CC(=O)Nc1ccccc1-c1ccc(NC(=O)c2ccc(OC)nc2)cc1C | –
> 20000 nM | C=CC(=O)Nc1ccccc1-c1ccc(NC(=O)c2cccc(C#N)c2)cc1C | –
2580 nM | C=CC(=O)Nc1ccccc1-c1ccc(NC(=O)c2cnc(C)nc2)cc1C | –
